Assays:
IL-6 = IL-6 inhibition in LPS-stimulated THP-1 cells (HTRF); format: cell-based; conditions: Homo sapiens; for EC50: LPS 500 ng/mL, 22 hours, IL6 HTRF; for inhibition at 10 µM: given for EC50 >10 μM, LPS, IL6, at 10 M [sic], read-out: percent inhibition at 10 M
Experimental: Human monocyte cell line (THP-1 cells; Catalog # TIB-202, ATCC, Manassas, Va.) were cultured in Roswell Park Memorial Institute (RPMI) 1640 Medium (Catalog #21870-100, Buffalo, N.Y.) with 1% L-glutamine, 1% HEPES, 1% Sodium Pyruvate, 2% Sodium Bicarbonate supplemented with 100 units/mL penicillin, 50 μg/mL streptomycin, 2-mercaptoethanol (0.05 mM) [basal medium] and 10% fetal bovine serum (Catalog #16140089, Life Technologies, Carlsbad, Calif.) at 37° C. and 5% CO2.
THP-1 cells were cultured in basal media with 1% FBS for 24 hours before the start of the assay. Each compound was dissolved in DMSO as a 10 mM stock and used to prepare compound source plates. Serial dilution (1:3, 10-point dose-response curves starting from 10 μM) and compound transfer was performed using the ECHO 550 (Labcyte, Sunnyvale, Calif.) into 384-well white low volume assay plates (Greiner Bio-One) with appropriate DMSO backfill for a final DMSO concentration of 0.1%. THP-1 cells were plated at 5000 cells/well in the 384-well plates and incubated at 37° C. for 2 h. 500 ng/mL of LPS was added after 2 hours and cells were incubated for another 22 hours at 37° C. Plates were spun in a centrifuge for 1 minute at […] and a mixture of anti-IL6 XL665, and anti-IL6 Cryptate diluted in reconstitution buffer (Cisbio Inc.) was added to each well. Following incubation for 3 hrs at room temperature, Homogeneous Time-Resolved Fluorescence (HTRF) was measured using the Envision (Perkin Elmer) at 665 nm and […]. The ratio of fluorescence at 665 nm to 620 nm was used as a readout for IL6 quantification. All samples were processed in duplicate. Readings were normalized to DMSO treated cells and normalized activities were utilized for EC50 calculations using the dose-response log (inhibitor) vs. response-variable slope (four parameters) nonlinear regression feature available in GraphPad Prism 5.0 (or Dotmatics). For EC50 of >10 μM, the percent inhibition at […] is provided.

[1] = test system: primary human fibroblasts derived from IPF patients (LL29 cells) treated with TGF-β1; assay: Inhibition of fibrotic process, αSMA staining in TGF-β1 treated LL29 fibroblasts; format: cell-based; conditions: Fibroblast; for EC50: 96 h, TGF-β1 20 ng/mL, 4 days, % cells positive for αSMA; for inhibition at 10 µM: given for EC50 >10 μM, TGF-β1, αSMA, read-out: percent inhibition at 10 μM
Excerpt: Representative compounds were screened using primary human fibroblasts (derived from IPF patients) treated with TGF-β1 to determine their ability to inhibit the fibrotic process.
Primary human fibroblasts derived from IPF patients (LL29 cells) [^1Xiaoqiu Liu, et. al., “Fibrotic Lung Fibroblasts Show Blunted Inhibition by cAMP Due to Deficient cAMP Response Element-Binding Protein Phosphorylation”, Journal of Pharmacology and Experimental Therapeutics (2005), 315(2), 678-687; ^2Watts, K. L., et. al., “RhoA signaling modulates cyclin D1 expression in human lung fibroblasts; implications for idiopathic pulmonary fibrosis”, Respiratory Research (2006), 7(1), 88] were obtained from American Type Culture Collection (ATCC) and expanded in F12 medium supplemented with 15% Fetal Bovine Serum and Penicillin/Streptomycin.
Each compound was dissolved in DMSO as a 10 mM stock and used to prepare compound source plates. Serial dilution (1:2, 11-point dose-response curves from […] to […]) and compound transfer was performed using the ECHO 550 (Labcyte, Sunnyvale, Calif.) into 384-well clear bottom assay plates (Greiner Bio-One) with appropriate DMSO backfill for a final DMSO concentration of 0.1%. LL29 cells are plated at 1,500 cells/well in 80 μL/well F12 medium supplemented with 1% Fetal Bovine Serum. One hour after addition of the cells, TGF-β1 (Peprotech; 20 ng/mL) was added to the plates to induce fibrosis (ref. 1 and 2 above). Wells treated with TGF-β1 and containing DMSO were used as controls. Cells were incubated at 37° C. and 5% CO2 for 4 days. Following incubation for 4 days, SYTOX green nucleic acid stain (Life Technologies [Thermo Fisher Scientific]) was added to the wells at a final concentration of 1 μM and incubated at room temperature for 30 min. Cells were then fixed using 4% formaldehyde (Electron Microscopy Sciences), washed 3 times with PBS followed by blocking and permeabilization using 3% Bovine Serum Albumin (BSA; Sigma) and 0.3% Triton X-100 (Sigma) in PBS. Cells were then stained with antibody specific to α-smooth muscle actin (aSMA; Abcam) (ref. 1 and 2 above) in 3% Bovine Serum Albumin (BSA; Sigma) and 0.3% Triton X-100 (Sigma) in PBS, and incubated overnight at 4° C. Cells were then washed 3 times with PBS, followed by incubation with Alexa Flor-647 conjugated secondary antibody (Life Technologies [Thermo Fisher Scientific]) and DAPI at room temperature for 1 hour. Cells were then washed 3 times with PBS and plates were sealed for imaging. aSMA staining was imaged by excitation at 630 nm and emission at 665 nm and quantified using the Compartmental Analysis program on the CellInsight CX5 (Thermo Scientific). Dead or apoptotic cells were excluded from analysis based on positive SYTOX green staining. % of total cells positive for aSMA were counted in each well and normalized to the average of 11 wells treated with TGF-β1 on the same plate using Dotmatics' Studies Software. The normalized averages (fold change over untreated) of 3 replicate wells for each compound concentration were used to create dose-responses curves and EC50 values were calculated using non-linear regression curve fit in the Dotmatics' Studies Software. For EC50 of >10 μM, the percent inhibition at 10 μM is provided.

Compound | EC50 (IL-6) | EC50 [1] | inhibition at 10 µM (IL-6) | inhibition at 10 µM [1]
CN(C)c1cncc(-c2ccc3[nH]nc(-c4cc5c(-c6cccc(F)c6)cncc5[nH]4)c3n2)c1 [Compound 7, 5-(3-(4-(3-Fluorophenyl)-1H-pyrrolo[2,3-c]pyridin-2-yl)-1H-pyrazolo[4,3-b]pyridin-5-yl)-N,N-dimethylpyridin-3-amine] | 38 nM | 450 nM | – | –
CN(C)Cc1cncc(-c2ccc3[nH]nc(-c4cc5c(-c6ccccc6F)cncc5[nH]4)c3n2)c1 [Compound 69, 1-(5-(3-(4-(2-Fluorophenyl)-1H-pyrrolo[2,3-c]pyridin-2-yl)-1H-pyrazolo [4,3-b]pyridin-5-yl)pyridin-3-yl)-N,N-dimethylmethanamine] | 1150 nM | 1120 nM | – | –
Fc1cccc(-c2cncc3[nH]c(-c4n[nH]c5ccc(-c6cncc(CN7CCCCC7)c6)nc45)cc23)c1 [Compound 15, 3-(4-(3-Fluorophenyl)-1H-pyrrolo[2,3-c]pyridin-2-yl)-5-(5-(piperidin-1-ylmethyl)pyridin-3-yl)-1H-pyrazolo[4,3-b]pyridine] | > 10000 nM | > 10000 nM | 51.3% | –
Fc1ccc(-c2cncc3[nH]c(-c4n[nH]c5ccc(-c6cncc(CN7CCC(F)(F)C7)c6)nc45)cc23)cc1 [Compound 54, 5-(5-((3,3-Difluoropyrrolidin-1-yl)methyl)pyridin-3-yl)-3-(4-(4-fluorophenyl)-1H-pyrrolo[2,3-c]pyridin-2-yl)-1H-pyrazolo[4,3-b]pyridine] | 177 nM | 370 nM | – | –
c1cc(-c2cncc3[nH]c(-c4n[nH]c5ccc(-c6cncc(CN7CCCCC7)c6)nc45)cc23)ccn1 [Compound 127, 5-(5-(Piperidin-1-ylmethyl)pyridin-3-yl)-3-(4-(pyridin-4-yl)-1H-pyrrolo[2,3-c]pyridin-2-yl)-1H-pyrazolo[4,3-b]pyridine] | 2860 nM | 4960 nM | – | –
Nc1cncc(-c2ccc3[nH]nc(-c4cc5c(-c6ccncc6)cncc5[nH]4)c3n2)c1 [Compound 115, 5-(3-(4-(Pyridin-4-yl)-1H-pyrrolo[2,3-c]pyridin-2-yl)-1H-pyrazolo[4,3-b]pyridin-5-yl)pyridin-3-amine] | 1030 nM | 6650 nM | – | –
O=C(Nc1cncc(-c2ccc3[nH]nc(-c4cc5ccncc5[nH]4)c3n2)c1)C1CCCC1 [Compound 274, N-(5-(3-(1H-Pyrrolo[2,3-c]pyridin-2-yl)-1H-pyrazolo[4,3-b]pyridin-5-yl)pyridin-3-yl)cyclopentanecarboxamide] | 235 nM | 656 nM | – | –
Fc1cccc(-c2cncc3[nH]c(-c4n[nH]c5ccc(-c6cccnc6)nc45)cc23)c1 [Compound 4, 3-(4-(3-Fluorophenyl)-1H-pyrrolo[2,3-c]pyridin-2-yl)-5-(pyridin-3-yl)-1H-pyrazolo[4,3-b]pyridine] | 266 nM | 272 nM | – | –
Cc1ccncc1-c1ccc2[nH]nc(-c3cc4c(-c5cccnc5)cncc4[nH]3)c2n1 [Compound 89, 5-(4-Methylpyridin-3-yl)-3-(4-(pyridin-3-yl)-1H-pyrrolo[2,3-c]pyridin-2-yl)-1H-pyrazolo[4,3-b]pyridine] | 424 nM | 1540 nM | – | –
O=C(Nc1cncc(-c2ccc3[nH]nc(-c4cc5c(-c6ccc(F)cc6)cncc5[nH]4)c3n2)c1)c1ccccc1 [Compound 39, N-(5-(3-(4-(4-Fluorophenyl)-1H-pyrrolo[2,3-c]pyridin-2-yl)-1H-pyrazolo [4,3-b]pyridin-5-yl)pyridin-3-yl)benzamide] | > 10000 nM | > 10000 nM | 33.1% | 39.8%

More lines, main results first:

EC50 (IL-6) | Compound | EC50 [1] | inhibition at 10 µM (IL-6) | inhibition at 10 µM [1]
649 nM | CS(=O)(=O)NCc1cc(F)cc(-c2cncc3[nH]c(-c4n[nH]c5ccc(-c6cncnc6)nc45)cc23)c1 [Compound 503, N-(3-Fluoro-5-(2-(5-(pyrimidin-5-yl)-1H-pyrazolo[4,3-b]pyridin-3-yl)-1H-pyrrolo[2,3-c]pyridin-4-yl)benzyl)methane sulfonamide] | 2210 nM | – | –
3710 nM | Cn1cc(-c2ccc3[nH]nc(-c4cc5c(-c6cccnc6)cncc5[nH]4)c3n2)cn1 [Compound 556, 5-(1-Methyl-1H-pyrazol-4-yl)-3-(4-(pyridin-3-yl)-1H-pyrrolo[2,3-c]pyridin-2-yl)-1H-pyrazolo[4,3-b]pyridine] | 3020 nM | – | –
> 10000 nM | c1ccc(-c2ccc3[nH]nc(-c4cc5ccncc5[nH]4)c3n2)nc1 [Compound 280, 5-(Pyridin-2-yl)-3-(1H-pyrrolo[2,3-c]pyridin-2-yl)-1H-pyrazolo[4,3-b]pyridine] | 1250 nM | 47.2% | –
1110 nM | Fc1cccc(-c2cncc3[nH]c(-c4n[nH]c5ccc(C6CCNCC6)nc45)cc23)c1 [Compound 505, 3-(4-(3-Fluorophenyl)-1H-pyrrolo[2,3-c]pyridin-2-yl)-5-(piperidin-4-yl)-1H-pyrazolo[4,3-b]pyridine] | > 10000 nM | – | 0%
31 nM | CS(=O)(=O)NCc1cc(F)cc(-c2cncc3[nH]c(-c4n[nH]c5ccc(-c6ccccn6)nc45)cc23)c1 [Compound 504, N-(3-Fluoro-5-(2-(5-(pyridin-2-yl)-1H-pyrazolo[4,3-b]pyridin-3-yl)-1H-pyrrolo[2,3-c]pyridin-4-yl)benzyl)methanesulfonamide] | 3670 nM | – | –
> 10000 nM | c1cc(-c2cncc3[nH]c(-c4n[nH]c5ccc(-c6cncc(OCCN7CCCC7)c6)nc45)cc23)co1 [Compound 690, 3-(4-(Furan-3-yl)-1H-pyrrolo[2,3-c]pyridin-2-yl)-5-(5-(2-(pyrrolidin-1-yl)ethoxy)pyridin-3-yl)-1H-pyrazolo[4,3-b]pyridine] | > 10000 nM | 9.7% | 29.5%
> 10000 nM | Cc1ncc(-c2ccc3[nH]nc(-c4cc5c(-c6ccncc6)cncc5[nH]4)c3n2)n1C [Compound 573, 5-(1,2-Dimethyl-1H-imidazol-5-yl)-3-(4-(pyridin-4-yl)-1H-pyrrolo[2,3-c]pyridin-2-yl)-1H-pyrazolo[4,3-b]pyridine] | 2190 nM | 0% | –
> 10000 nM | O=C(Cc1ccccc1)Nc1cncc(-c2ccc3[nH]nc(-c4cc5c(-c6ccoc6)cncc5[nH]4)c3n2)c1 [Compound 318, N-(5-(3-(4-(Furan-3-yl)-1H-pyrrolo[2,3-c]pyridin-2-yl)-1H-pyrazolo[4,3-b]pyridin-5-yl)pyridin-3-yl)-2-phenylacetamide] | > 10000 nM | 30.9% | 35.5%
